Measurements taken from publication PMC9599246 (2022).

Test system: fl-2CS1 (DNA, aptamer) GAGAGGTCAGATGATGCACTAGGGTTACGAGACCACGCGGTACCCTATGCGTGCTAC
Assay: ITC
Conditions: none added; 0.1 M Tris-HCl pH 7.4, 1% DMSO, 25 °C; 125 μM toxin in syringe, 5 μM aptamer in cell

**Q.** With CCCC[C@@H](C)[C@@H](OC(=O)C[C@@H](CC(=O)O)C(=O)O)[C@H](C[C@@H](C)C[C@H](O)CCCC[C@@H](O)C[C@H](O)[C@H](C)N)OC(=O)C[C@@H](CC(=O)O)C(=O)O as the compound, how does the binding read?
**A.** The binding was “no”.

**Q.** With C[C@@H]1Cc2c(Cl)cc(C(=O)N[C@@H](Cc3ccccc3)C(=O)O)c(O)c2C(=O)O1 as the compound, how does the binding read?
**A.** Its binding is “no”.
